System: Plasmodium falciparum
Experiment: GSK_TCMDC: Inhibition of Plasmodium falciparum 3D7 in whole erythrocytes, using parasite LDH activity as an index of growth.
Type: functional, organism-based
Conditions: not given

Work on Cc1c(C)c2c(c(C)c1O)CC[C@](C)(C(=O)NC1CCC(CN3CCC(c4c[nH]c5ccccc45)CC3)CC1)O2 (some centres undefined) yielded an XC50 of 1120 nM.

Same assay, conditions: Plasmodium falciparum, 3D7

In order of rising XC50:
1. CC1(C)NC(N)=NC(=N)N1OCCCc1cccc(C(F)(F)F)c1  3.2 nM
2. Cc1nc(N)nc(N)c1OCCCOc1ccccc1Br  4.1 nM
3. CCNCc1ccc(-c2cc3ncnc(Nc4ccc(OCc5cccc(F)c5)c(Cl)c4)c3s2)[nH]1  109 nM
4. FC(F)(F)c1ccc2[nH]c(-c3ccc(-c4cccc(CNCCc5ccncc5)c4)s3)nc2c1  117 nM
5. CN(CCN1CCC(c2c[nH]c3ccccc23)CC1)c1ccc(-c2nc3cc(Cl)c(Cl)cc3[nH]2)cc1  119 nM
6. Fc1ccc2[nH]c(-c3ccc(-c4ccc(CNCCc5ccncc5)cc4)cc3)nc2c1  142 nM
7. FC(F)(F)c1ccc2[nH]c(-c3ccc(-c4ccc(CN5CCN(c6ccncc6)CC5)cc4)s3)nc2c1  153 nM
8. c1cc(CN2CCN(c3ccncc3)CC2)cc(-c2ccc(-c3nc4ccccc4[nH]3)cc2)c1  153 nM
9. c1cc(-c2ccc(CNCc3ccsc3)cc2)cc(-c2nc3ccccc3[nH]2)c1  156 nM
10. Cc1cccc2nc(-c3ccc(-c4ccc(NC(=O)Nc5ccsc5)cc4)cc3)[nH]c12  171 nM
11. CN(C)CCN(C)Cc1ccc(-c2ccc3c(Nc4ccc(Oc5ccccc5)cc4)ccnc3c2)o1  179 nM
12. CC1(C)NC(N)=NC(=N)N1OCCCO  221 nM
13. Cc1nc(N)nc(N)c1CCCOc1ccccc1Cl  224 nM
14. CC(C)NCc1ccc(-c2cccc(-c3nc4cc(C(F)(F)F)ccc4[nH]3)c2)cc1  262 nM
15. Cc1cnc(C(=O)Nc2cccc(-c3csc(-c4nc5ccccc5[nH]4)c3)c2)cn1  275 nM
16. N=C(N)Nc1ccc(CCc2ccc(NC(=N)N)cc2)cc1  289 nM
17. COc1cc(C(F)(F)F)c2cc(CNCCCNc3nc4ccccc4[nH]3)[nH]c2c1  305 nM
18. COc1cc(F)c2ncc(Cl)c(CCN3CCC(NCc4ccc5c(c4)NC(=O)CS5)CC3)c2c1  313 nM
19. Cc1c(NCCCNCc2cc(Cl)cc(Cl)c2Cl)[nH]c2ccccc2c1=O  314 nM
20. OC1=C2C(=Nc3ccccc3SC2c2ccccc2)c2ccccc21 (centres undefined)  325 nM
21. NC1=NC2(CCCCC2)N(OCCCCCCc2ccccc2)C(N)=N1  347 nM
22. CC1CNC(c2cccc(NC(=O)Nc3cccc(C4=NC(C)CN4)c3)c2)=N1 (centres undefined)  359 nM
23. COc1c(C2CCN(CCCCNC(=O)c3oc(-c4ccc(Cl)cc4)cc3CO)CC2)ccc2c1CCCC2  367 nM
24. C=C(F)c1sc(CNCCCNc2nc3ccccc3[nH]2)c(C)c1Br  367 nM
25. CCC1(CC)N=C(N)N=C(N)C1c1ccc(Cl)c(Cl)c1 (centres undefined)  380 nM
26. COc1cc(NC(=O)Nc2cc(C)nc3ccccc23)cc(OC)c1  396 nM
27. N#Cc1cccc(C(=O)NC2CCN(c3ccnc(Nc4ccc(F)cc4)n3)C2)c1 (centres undefined)  396 nM
28. O=C(NCCc1ccccc1)N(Cc1cccc(-c2ccc(CNC3CCCC3)cc2)c1)C1CCN(Cc2ccccc2)CC1  404 nM
29. COc1ccc(CN2CCC(CNCCc3c(Cl)cccc3Cl)CC2)cc1  435 nM
30. Cc1cc(C)c(S(=O)(=O)N2CCCCC(c3cccc(C(F)(F)F)c3)=N2)c(C)c1  456 nM
31. Cc1noc(-c2cccs2)c1C(=O)NCCc1cccc(Cl)c1  463 nM
32. COc1ccc(CCC(C)(C)NCC(O)c2cccc(C(F)(F)F)c2)cc1 (centres undefined)  480 nM
33. CC(=O)c1c(Nc2c(C)cc(C)cc2C)oc(C)cc1=O  481 nM
34. COCCOC(=O)C(=O)c1c(-c2ccccc2)c(-c2ccc(OC)c(OC)c2)c2c3cc(OC)c(OC)cc3ccn12  497 nM
35. OC(CNc1ccnc(Nc2cccc(Cl)c2)n1)c1cccc(C(F)(F)F)c1 (centres undefined)  513 nM
36. CCOc1ccc(NC(=O)c2cn3nc(-c4ccc(OCC)cc4)cc3nc2C2CCNCC2)cc1  515 nM
37. CCCCCCN(CCCCCC)CCCCNc1c2ccc(Cl)cc2nc2ccc(OC)cc12  535 nM
38. Cc1ccc(/C=C2/SC(=Nc3ccccc3)NC2=O)c(C)c1  557 nM
39. Fc1ccc2nc(Nc3nc(-c4ccccn4)cs3)sc2c1  560 nM
40. Fc1ccc2c(NN=Cc3ccccc3F)ccnc2c1  562 nM
41. COc1cccc(C=NNc2cc(C)nc3c(OC)cccc23)c1  578 nM
42. N=C(NCCCCCCCCNC(=N)Nc1ccc(Cl)cc1)Nc1ccc(Cl)cc1  590 nM
43. CNC(=O)c1cnc(Nc2ccc(OCC(O)CN(C)C)cc2)nc1Nc1cccc([N+](=O)[O-])c1 (centres undefined)  617 nM
44. C[C@@H](CC1CCCCC1)OC(=O)N(C)[C@@H]1CCN(C#N)C1  621 nM
45. Cn1cncc1C(=O)Nc1cccc(-c2cccc(-c3nc4ccccc4[nH]3)c2)c1  635 nM
46. O=C(Nc1ccc2nc3n(c(=O)c2c1)CCCCC3)C(=O)N1CCN(c2ccc(F)cc2)CC1  636 nM
47. OC(CN1c2ccccc2Sc2ccccc21)CN(C1CCCCC1)C1CCCCC1 (centres undefined)  651 nM
48. CCn1c(-c2nonc2N)nc2c(-c3cccc(NC(=O)Nc4ccccc4Cl)c3)ncc(OCCCN)c21  671 nM
49. O=C(NCc1cccc(OC(F)(F)F)c1)c1cnc2c(c1)nc(-c1c[nH]c(-c3ccccc3)n1)n2CCc1c[nH]cn1  683 nM
50. CC(=O)Nc1ccc(CNCCc2ccc(NC(=O)c3cc(Cl)cc(Cl)c3)cc2)cc1  684 nM
51. COC(=O)c1ccc2nc(-c3ccc(C(=O)NC4CCN(Cc5ccccc5)CC4)s3)[nH]c2c1  688 nM
52. COc1ccccc1N1CCN(CCCCN(C(=O)Nc2cccc(Cl)c2)C(=O)Nc2cccc(Cl)c2)CC1  707 nM
53. CC(C)COc1ccc(Cl)cc1Cc1nc(-c2nc3ccc(CN(C)C)cc3[nH]2)co1  711 nM
54. Cc1ccc(F)cc1S(=O)(=O)Nc1ccc(CCN2CCC(N3CCCCC3)CC2)cc1  719 nM
55. O=C(Nc1ccc(Cl)cc1)c1cccc(S(=O)(=O)NC2CCN(CC3CCCCC3)CC2)c1  722 nM
56. CCCNCc1ccc(-c2ccc(CN(CCOC)C(=O)[C@H]3CCCO3)cc2)nc1  745 nM
57. OC(CNc1ccnc(Nc2cccc(Cl)c2)n1)c1ccc(C(F)(F)F)cc1 (centres undefined)  768 nM
58. Cc1cc(Nc2cccc(C(F)(F)F)c2)nc(N)n1  790 nM
59. Cn1cncc1C(=O)Nc1cccc(-c2ccc(-c3nc4ccccc4[nH]3)s2)c1  796 nM
60. NC(=O)CCC(NC(=O)CNC(=O)Nc1cccc(C(F)(F)F)c1)C(=O)O (centres undefined)  803 nM
61. COc1ccc(Nc2nccc(N3CCC(NC(=O)Nc4cccc(C(C)=O)c4)C3)n2)cc1 (centres undefined)  821 nM
62. NCC1CCCN1Cc1ccc(-c2cccc(-c3nc4cc(C(F)(F)F)ccc4[nH]3)c2)cc1 (centres undefined)  833 nM
63. Cc1ccc2[nH]c(C)cc(=NN=CC=Cc3ccccc3)c2c1  840 nM
64. COc1ccccc1Oc1c(N(C)S(=O)(=O)c2ccc(C(C)C)cc2)nc(C(F)(F)F)nc1N(C)S(=O)(=O)c1ccc(C(C)C)cc1  846 nM
65. C=C(NC(=O)C1CCCCC1)C(=O)OC  849 nM
66. O=C(Cc1cccc(Cl)c1)N1CCc2cc3nccc(N4CCN5CCC[C@H]5C4)c3cc21  854 nM
67. CN1C(=O)[C@H](NC(=O)[C@@H](Cc2ccccc2)NC(=S)Nc2ccccc2)N=C(c2ccccc2)c2ccccc21  855 nM
68. Cc1ccccc1-c1nc2c(CN3CCC(O)(c4ccccc4)CC3)c(O)ccc2[nH]1  866 nM
69. C[C@@H](CC1CCCCC1)OC(=O)N[C@H]1CCN(C#N)C1  870 nM
70. Cc1cc(N[C@@H](Cc2ccccc2)C(=O)Nc2ccccc2)nc(NCCc2ccccn2)n1  874 nM
71. NC1=Nc2ccc(Cl)cc2C1(O)c1ccccc1 (centres undefined)  876 nM
72. COCCCNc1sc(S(=O)(=O)c2ccccc2)nc1S(=O)(=O)c1ccc(Cl)cc1  877 nM
73. Cc1c(C)c2c(c(C)c1O)CC[C@](C)(C(=O)NC1CCC(CN3CCC(c4c[nH]c5ccccc45)CC3)CC1)O2 (some centres undefined)  881 nM
74. NC1CCN(Cc2cccc(-c3csc(-c4nc5ccccc5[nH]4)c3)c2)C1 (centres undefined)  892 nM
75. CC(C)NCc1ccc(-c2ccc(NC(=O)c3ccc(Cl)cc3)cc2)cc1  910 nM
76. COc1ccc(S(=O)(=O)NC2CCN(c3cc(C)nc(Nc4cccc(C#N)c4)n3)CC2)cc1  946 nM
77. CN(C)CCC(O)C=C(c1ccc(Cl)cc1)c1ccc(Cl)cc1 (centres undefined)  948 nM
78. COc1cccc(-c2nn(C)c3sc(C(=O)Nc4cccnc4)cc23)c1  948 nM
79. COc1ccc(CCn2c(C3CCCCC3)nc3oc4ccccc4c(=O)c3c2=O)cc1  952 nM
80. O=C1OC2(CN1CC1CCN(Cc3ccc(-n4ccnc4)cc3)C1)c1ccccc1-c1ccccc12 (centres undefined)  983 nM
81. CCCN(CCC)c1nn2c(=O)c(C(=O)N3CCN(Cc4ccccc4)CC3)cnc2s1  999 nM
82. CCOc1cccc(C(=O)Nc2nonc2-c2ccc(OC)c(OC)c2)c1  1020 nM
83. O=c1cc(NCCCNCc2cccc(I)c2)[nH]c2ccccc12  1020 nM
84. COc1cc(Cc2cnc(N)nc2N)cc(OCCCC#N)c1OC  1030 nM
85. CC(C)C(=O)n1ncc2c3c(N)nc(N)nc3ccc21  1030 nM
86. CC1CCNc2ccc(Cc3cnc(N)nc3N)cc21 (centres undefined)  1040 nM
87. O=C(NC1CCCCN(Cc2ccc3c(c2)OCCO3)C1)c1cc(-c2ccccc2F)cs1 (centres undefined)  1050 nM
88. CCC(CC)CN1C(=O)C(C)(c2ccccc2)N=C1N (centres undefined)  1060 nM
89. c1cncc(CCNCc2ccc(-c3ccc(CNC4Cc5ccccc5C4)cc3)cc2)c1  1090 nM
90. CCc1sc(N2CCC(C)CC2)nc1C(=O)Nc1ccc(F)cc1C(F)(F)F  1090 nM
91. CCCN1CCN(CCCNC(=O)c2cc3c(-c4ccc(Cl)cc4)nn(C)c3s2)CC1  1100 nM
92. CN1CCc2ccc(NC(=O)Nc3cccc([N+](=O)[O-])c3)cc2C1  1100 nM
93. COc1cc(C(=O)NC2CCc3ccccc32)cc(Cl)c1OC (centres undefined)  1100 nM
94. O=C(NC1CCN(c2ccnc3ccccc23)C1)c1ccc(OC(F)(F)F)cc1 (centres undefined)  1150 nM
95. CC1(C)CNCc2cc(NC(=O)/C=C/c3ccc(Cl)cc3)ccc21  1180 nM
96. Cc1ccc(C)c(S(=O)(=O)Nc2ccc(Br)cc2C(=O)Nc2cccc(C(F)(F)F)c2)c1  1210 nM
97. CN(CCCN(C)c1cc(NC(=O)c2ccc(F)cc2)ccn1)Cc1cccc(O)c1  1210 nM
98. Cc1cc(NCCC(=O)NCCOc2ccccc2)nc(NCCc2ccccc2)n1  1230 nM
99. O=C(/C=C/c1ccccc1O)N1CCC(CCN2CCC(c3c[nH]c4ccccc34)CC2)CC1  1340 nM
100. Cc1ccc(-c2ccc(NC(=O)N3CCc4cc(Br)c(N5CCN(C)CC5)cc43)cc2)cn1  1350 nM
101. COc1ccc(-c2cccc(NC(=O)c3ccc(F)cc3)c2)cc1CNC(C)C  1380 nM
102. COc1ccc(NC(=O)[C@H](Cc2ccccc2)Nc2cc(C)nc(NCCN3CCCC3)n2)cc1  1390 nM
103. NS(=O)(=O)Cc1cccc(-c2ccnc3ccc(-c4cccc(S(N)(=O)=O)c4)cc23)c1  1560 nM
